We go through one compound from PMC12169104, “Towards the development of supramolecular self-associating amphiphiles as antibiofilm agents against Pseudomonas aeruginosa and Candida albicans biofilms” (Journal of Materials Chemistry. B, 2025).

Read-outs that look alike come from different tables or passages of the source.

Data set [1] in a line: In vivo pharmacokinetic study, intravenous. Also on record: species or system female CD-1 mice. The conditions noted are these: IV 1 mg/kg. The method, then: In vitro Absorption, Distribution and Metabolism results […]
In vivo Pharmacokinetic study methods
SSA 5 was dosed at 1 mg/kg to female CD -1 mice (n=3) via an intravenous tail vein bolus administration, dose formulation was a solution in 2% DMSO/98% Water. Blood was sampled from the dorsal metatarsal vein at each time point (n=8) and added to tubes containing anticoagulant K2-EDTA. Blood samples were extracted by protein precipitation. Blood concentrations were calculated through UPLC-MS/MS techniques, with internal standard. The lower limit of quantitation was 6.4 nM. PK parameters were calculated using Phoenix WinNonlin version 8.3.

Data set [2] can be described thus: Metabolic stability in liver microsomes. Format: in vitro ADME, human. On the procedure: (§1) Section S5: In vitro and in vivo studies
(§2) These studies were performed by Contract Research Organisation (CRO) Pharmaron. The methodology provided within the ESI is published within the express permission of this organisation.
(§3) The percentage of a compound recovered during the analysis process should be 100 %; any deviation from this value indicates experimental limitations such as unintended potential non-specific binding events to experimental equipment, solubility issues, etc.
(§4) In vitro Absorption, Distribution and Metabolism studies methods: […]
(§5) The ionisation
(§6) Kinetic Solubility Determination in PBS pH 7.4:
(§7) The stock solutions of test and control compounds were prepared in DMSO at 10 mM. From this a 300 µM solution was prepared in duplicate in 100 mM Phosphate Buffered Saline (PBS, pH 7.4 ± 0.1). These solutions were then shaken at 1100rpm for 2 hours at 25°C. […]
(§8) Metabolic Stability in Rat, Mouse and Human Liver Microsomes :
(§9) The metabolic stability of compounds at a concentration of 1 µM, in rat, mouse and human liver microsomes (BD Gentest, Franklin Lakes NJ) was measured following incubation with hepatic microsomes (0.5 mg of protein / mL) in the presence and absence of cofa ctor (NADPH) at 37 °C.
(§10) Aliquots of each incubation were removed at 0.5, 5, 15, 30 and 60 minutes. The reaction was stopped by the addition of cold acetonitrile containing analytical internal standard (IS). […]
(In general: Microsomes from liver hold many membrane-bound enzymes, among them those of drug oxidation.)

Data set [3] is described as follows: Metabolic stability in liver microsomes. The format is in vitro ADME, mouse. On the procedure: as §1, §2, §3, §4, §5, §6, §7, §8, §9, §10
Where [4] appears, read: mouse, whole blood, blood, female CD-1 mice.

In general, Cmax refers to the peak of the concentration-time curve. As a reminder, the AUC(0-inf) is the area under the concentration-time curve extrapolated to infinity. A higher AUC(0-inf) goes with more exposure. By AUC(0-t) is commonly meant exposure summed from dosing to a finite time, without extrapolation to infinity. Read a high AUC(0-t) as high exposure. Broadly, the Tmax is the time at which the peak concentration occurs. Turning to `O=C(O)CNc1c(Nc2ccc(C(F)(F)F)cc2)c(=O)c1=O` [SSA 5], in data set [1] (female CD-1 mice), the “Cl Blood as % LBF” value is on record as greater than 100 % LBF. Further, the concentration at 2 h in data set [1] (female, CD-1, mouse, whole blood, 2 hours following dosing, read-out: blood level at last detected time) was determined as 8.1 nM. Moreover, the clearance in data set [1] (mouse, whole blood, female CD-1 mice, read-out: Cl Blood) was determined as 162 ± 28 mL/min/kg. Besides, the Vd in data set [1] (mouse, whole blood, female CD-1 mice, read-out: Vss) is 3.1 ± 1.7 L/kg. For the same compound, in data set [1] (mouse, whole blood, blood, DMSO:H2O 2:98, female CD-1 mice), the Cmax stood at 1200 ± 208 nM. Also, the area under the curve AUC(0-inf) in data set [1] (setting [4]) came out at 0.335 ± 0.06 µM·h. In data set [1] (setting [4]), this compound yielded an AUC(0-t) of 0.327 ± 0.057 µM·h. Moreover, in data set [1] (setting [4]), the Tmax worked out at 4.98 min. The compound further showed a half-life in data set [1] (mouse, whole blood, terminal half-life, female CD-1 mice) of 43.8 ± 36.6 min. In addition, the “Hepatic Extraction Ratio (ER)” value in data set [2] (human) is listed as less than 0.27; in data set [3] (mouse), less than 0.26. In addition, the half-life at 1 µM is greater than 185 min in data set [2] (liver microsomes, human microsomes, 1 µM, read-out: In vitro T1/2) and greater than 185 min in data set [3] (liver microsomes, mouse microsomes, 1 µM, read-out: In vitro T1/2).
